Test results reported in patent US11639332B2, “Methods and compositions of isoindoline-1,3-dione and isoindole prodrugs useful for treating cancer, ulcerative colitis and related inflammatory diseases” (AMGEN (EUROPE) GMBH, priority 2018, dated 2023).
Values joined by “and” are separate entries in the source; they are usually repeats but may differ in a detail not shown here. Identical values can stand only once.

Test system: Trinitrobenzenesulfonic Acid (TNBS) Rat Model of Colonic Inflammation
Assay: Trinitrobenzenesulfonic acid (TNBS) rat model of colonic inflammation, oral treatment Days 1-6, evaluation Day 7
Format: in vivo, Sprague-Dawley rats
Design: key to Average Colonic Score: sum of adhesions, strictures, ulcers and wall thickness scores
Conditions: for Average # Ulcers / Average Colon Length / Average Colon Weight / Average Colonic Score / Average Ratio (colon length/colon weight) / Average Ulcer Length / Average Wall Thickness / Average Adhesions / Average Colon Wall Thickness, score / Average Strictures / Average Ulcers, score / Average Rat Weight: group mean; for Average # Ulcers / Average Colon Length / Average Colon Weight / Average Colonic Score / Average Ratio (colon length/colon weight) / Average Ulcer Length / Average Wall Thickness / Average Adhesions / Average Colon Wall Thickness, score / Average Strictures / Average Ulcers, score / # Ulcers / Colon Length / Colon Weight / Ratio (colon length/colon weight) / Ulcer Length / Wall Thickness / Colon Wall Thickness, score / Ulcers, score / Strictures / Adhesions / Colonic Score: Day 7; for Average Adhesions / Average Colon Wall Thickness, score: score 0-2; for Average Strictures / Average Ulcers, score: score 0-3; for # Ulcers / Colon Length / Colon Weight / Ratio (colon length/colon weight) / Ulcer Length / Wall Thickness / Colon Wall Thickness, score / Ulcers, score / Strictures / Adhesions / Colonic Score / Rat Weight: individual rats; for Colon Wall Thickness, score: less than 1 mm=0, 1-3 mm=1, >3 mm=2; for Ulcers, score: none=0, linear ulceration <1 cm=1, two linear ulcers <1 cm=2, more sites or one large ulcer=3; for Strictures: score none=0, mild=1, moderate=2, severe, proximal dilatation=3; for Adhesions: score none=0, minimal=1, involving several bowel loops=2; for Colonic Score: sum of adhesions, strictures, ulcers and wall thickness scores
Protocol: In Vivo Efficacy of PDE4 Inhibitor Prodrug in the Trinitrobenzenesulfonic Acid (TNBS) Rat Model of Colonic Inflammation
2. 1.62 g of prodrug from Example 2 (WB301), lot 2 (MW 587.12) in a clear 20 mL glass vial (orange material) which was stored at 4-8° C.
38 Sprague-Dawley rats (Harlan Sprague-Dawley, Inc. male, PO #599229, R #3450, 200-220 g) were received, individually examined and housed in nine cages of four rats each and one cage containing two rats. No clinical signs of disease or distress were observed. The rats were placed in quarantine with daily inspections. The rats were ear notched (SOP 800) for identification purposes, weighed (RESULTS), and sorted into four treatment groups of eight rats each based upon average body weight. The rats were individually examined and found to be free of any clinical signs of disease or distress. No deaths were recorded during the quarantine period. The rats were released to routine maintenance.
A 16 mg/ml TNBS solution was prepared be adding 2.729 ml picrylsulfonic acid solution (1 M, FLU KA, Cat. 92822, lot CDBB6609V) to 22.271 ml de-ionized water (dH20) and 25 ml 100% ethanol (200 proof, Sigma, Cat. E7023, lot SHBH3633V).
The rats were weighed (RESULTS), anesthetized (SOP1810) and Groups 1-4 were intra-rectally instilled with 4 ml/kg TNBS solution (64 mg/kg), the anus was pinched closed and the rat held inverted for one minute.
400 mg (-)riboflavin was dissolved in 40 ml DMSO (Sigma, Cat. D5879, lot 16K0127) by sonication in a 40° C. water bath for 20 minutes in an amber glass bottle, followed by storage at room temperature overnight to prepare a 10 mg/ml yellow solution.
135 mg NaOH (Fisher Scientific, Cat. S320, lot 066620) was dissolved in 100 ml dH2O to prepare a 1.35 mg/ml solution. 128.46 mg prednisolone 21-hemisuccinate sodium salt (Sigma, Cat. P4153, lot BCBB6136V, salt factor 1.339) was dissolved in 9.59 ml (-)riboflavin/DMSO followed by addition of 9.59 ml PEG400 (Sigma, Cat. 91893, lot BCBB7720). 28.781 aqueous NaOH was added with sonication to prepare a 2 mg/ml solution for Group 4. 44 mg WB301 was vortexed in 2.19 ml (-)riboflavin/DMSO to yield an orange solution followed by addition of 2.19 ml PEG400. 6.621 ml aqueous NaOH was added with sonication to prepare a 4 mg/ml solution for Group 1. 132 mg WB301 was vortexed in 2.19 ml (-)riboflavin/DMSO to yield an orange solution followed by addition of 2.19 ml PEG400. 6.621 ml aqueous NaOH was added with sonication to prepare a 12 mg/ml solution for Group 2. 6.6 mg apremilast was vortexed in 2.2 ml (-)riboflavin/DMSO to yield an orange solution followed by addition of 6.6 ml PEG400. 2.2 ml dH2O was added to prepare a 0.6 mg/ml solution for Group 3.
The rats were weighed (RESULTS) and daily oral (PO, SOP 1651) dosing at 5 ml/kg was initiated as in TABLE 1.
The rats were weighed (RESULTS) and the animals were dosed as described above daily. WB301 and apremilast solutions were prepared fresh daily as described above.
The rats were weighed (RESULTS) anesthetized, a midline incision was made in the abdomen and the colon was evaluated for adhesions and stricture (RESULTS). The colon was removed and the length recorded (RESULTS). A midline incision was made the entire length of the colon, the contents removed and the colon weight and colon wall thickness recorded (RESULTS). A section of the colon was preserved in 20 volumes of 10% neutral buffered formalin (Richard-Allan Scientific, Cat. 5701, lot 378532, exp07/2020). The carcasses were disposed of.
3) involving several bowel loops=2
4) severe, proximal dilatation=3
2) linear ulceration <1 cm=1
3) two linear ulcers <1 cm=2
4) more sites of ulceration or one large ulcer=3

[1] = Group 1, 20 mg/kg once daily oral, starting 24 hours after TNBS
[2] = Group 2, 60 mg/kg once daily oral
[3] = Group 2, 60 mg/kg PO daily, study day 0, day of TNBS, before dosing
[4] = Group 2, 60 mg/kg PO daily, study day 1, before first dose
[5] = Group 2, 60 mg/kg PO daily, study day 2
[6] = Group 2, 60 mg/kg PO daily, study day 3
[7] = Group 2, 60 mg/kg PO daily, study day 4
[8] = Group 2, 60 mg/kg PO daily, study day 5
[9] = Group 2, 60 mg/kg PO daily, study day 6
[10] = Group 2, 60 mg/kg PO daily, study day 7
[11] = Group 2, 60 mg/kg PO daily, study day −3, before TNBS and dosing

CCOc1cc([C@@H](CS(C)(=O)=O)N2C(=O)c3cccc(/N=N/c4ccc(O)c(C(=O)O)c4)c3C2=O)ccc1OC [WB301]
effect on TNBS-induced damage across doses (20 and 60 mg/kg once daily oral, starting 24 hours after TNBS): dose-dependent reduction in the TNBS-induced damage
amelioratory effect on TNBS-induced damage [1]: no apparent amelioratory effect was observed
weight loss [1]: 15%
macroscopic disease scores [2]: improvement of the macroscopic disease scores
study day on which rats began to recover from TNBS-induced weight loss [2]: 6 days
reduction in overall colonic score (Group 2, 60 mg/kg once daily oral, assuming a colonic score of 10 for vehicle-treated rats): 25%
stool observation in cages/bedding (Group 2, 60 mg/kg once daily oral, starting DAY 4, indicative of partial colon function): Diarrhea was observed in the bedding
Average # Ulcers (Group 1, 20 mg/kg PO daily): 1
Average Colon Length (Group 1, 20 mg/kg PO daily): 11.4 cm
Average Colon Weight (Group 1, 20 mg/kg PO daily): 6.652 g
Average Colonic Score (Group 1, 20 mg/kg PO daily): 9.1
Average Ratio (colon length/colon weight) (Group 1, 20 mg/kg PO daily): 1.915 cm/g
Average Ulcer Length (Group 1, 20 mg/kg PO daily): 6.3 cm
Average Wall Thickness (Group 1, 20 mg/kg PO daily): 3.4 mm
Average Adhesions (Group 1, 20 mg/kg PO daily): 1.5
Average Colon Wall Thickness, score (Group 1, 20 mg/kg PO daily): 1.8
Average Strictures (Group 1, 20 mg/kg PO daily): 2.9
Average Ulcers, score (Group 1, 20 mg/kg PO daily): 3.0
Average Rat Weight (Group 1, 20 mg/kg PO daily, study day 0, day of TNBS, before dosing): 219 g
Average Rat Weight (Group 1, 20 mg/kg PO daily, study day 1, before first dose): 213 g
Average Rat Weight (Group 1, 20 mg/kg PO daily, study day 2): 203 g
Average Rat Weight (Group 1, 20 mg/kg PO daily, study day 3): 197 g
Average Rat Weight (Group 1, 20 mg/kg PO daily, study day 4): 195 g
Average Rat Weight (Group 1, 20 mg/kg PO daily, study day 5): 189 g
Average Rat Weight (Group 1, 20 mg/kg PO daily, study day 6): 189 g
Average Rat Weight (Group 1, 20 mg/kg PO daily, study day 7): 186 g
Average Rat Weight (Group 1, 20 mg/kg PO daily, study day −3, before TNBS and dosing): 215 g
Average # Ulcers (Group 2, 60 mg/kg PO daily): 1
Average Colon Length (Group 2, 60 mg/kg PO daily): 14.4 cm
Average Colon Weight (Group 2, 60 mg/kg PO daily): 4.604 g
Average Colonic Score (Group 2, 60 mg/kg PO daily): 7.5
Average Ratio (colon length/colon weight) (Group 2, 60 mg/kg PO daily): 3.891 cm/g
Average Ulcer Length (Group 2, 60 mg/kg PO daily): 5.6 cm
Average Wall Thickness (Group 2, 60 mg/kg PO daily): 2.6 mm
Average Adhesions (Group 2, 60 mg/kg PO daily): 1.3
Average Colon Wall Thickness, score (Group 2, 60 mg/kg PO daily): 1.1
Average Strictures (Group 2, 60 mg/kg PO daily): 2.1
Average Ulcers, score (Group 2, 60 mg/kg PO daily): 3.0
Average Rat Weight [3]: 216 g
Average Rat Weight [4]: 207 g
Average Rat Weight [5]: 200 g
Average Rat Weight [6]: 193 g
Average Rat Weight [7]: 192 g
Average Rat Weight [8]: 191 g
Average Rat Weight [9]: 195 g
Average Rat Weight [10]: 196 g
Average Rat Weight [11]: 215 g
# Ulcers (Group 1, 20 mg/kg PO daily): 1
Colon Length (Group 1, 20 mg/kg PO daily): 12.0 cm and 10.0 cm and 10.5 cm and 11.0 cm (3×) and 12.5 cm and 13.5 cm
Colon Weight (Group 1, 20 mg/kg PO daily): 9.124 g and 7.629 g and 3.180 g and 4.920 g and 9.000 g and 8.300 g and 6.200 g and 4.862 g
Ratio (colon length/colon weight) (Group 1, 20 mg/kg PO daily): 1.315 cm/g and 1.311 cm/g and 3.302 cm/g and 2.236 cm/g and 1.389 cm/g and 1.325 cm/g and 2.177 cm/g and 2.262 cm/g
Ulcer Length (Group 1, 20 mg/kg PO daily): 6.0 cm (3×) and 6.3 cm and 7.0 cm and 5.5 cm and 6.8 cm and 6.5 cm
Wall Thickness (Group 1, 20 mg/kg PO daily): 3.5 mm and 3.2 mm and 4.0 mm (2×) and 3.7 mm (2×) and 2.5 mm (2×)
Colon Wall Thickness, score (Group 1, 20 mg/kg PO daily): 2 (6×) and 1 (2×)
Ulcers, score (Group 1, 20 mg/kg PO daily): 3
Strictures (Group 1, 20 mg/kg PO daily): 3 (7×) and 2
Adhesions (Group 1, 20 mg/kg PO daily): 1 (4×) and 2 (4×)
Colonic Score (Group 1, 20 mg/kg PO daily): 9 (2×) and 10 (4×) and 8 and 7
# Ulcers (Group 2, 60 mg/kg PO daily): 1
Colon Length (Group 2, 60 mg/kg PO daily): 15.0 cm (5×) and 14.5 cm and 14.0 cm and 11.5 cm
Colon Weight (Group 2, 60 mg/kg PO daily): 2.551 g and 1.969 g and 6.164 g and 5.418 g and 9.037 g and 4.831 g and 4.140 g and 2.719 g
Ratio (colon length/colon weight) (Group 2, 60 mg/kg PO daily): 5.880 cm/g and 7.618 cm/g and 2.352 cm/g and 2.769 cm/g and 1.549 cm/g and 3.105 cm/g and 3.623 cm/g and 4.229 cm/g
Ulcer Length (Group 2, 60 mg/kg PO daily): 3.5 cm and 4.0 cm and 6.0 cm (2×) and 6.5 cm (2×) and 6.7 cm and 5.5 cm
Wall Thickness (Group 2, 60 mg/kg PO daily): 2.0 mm (4×) and 3.0 mm (2×) and 4.0 mm and 2.5 mm
Colon Wall Thickness, score (Group 2, 60 mg/kg PO daily): 1 (7×) and 2
Ulcers, score (Group 2, 60 mg/kg PO daily): 3
Strictures (Group 2, 60 mg/kg PO daily): 1 (2×) and 0 and 3 (5×)
Adhesions (Group 2, 60 mg/kg PO daily): 0 (2×) and 2 (4×) and 1 (2×)
Colonic Score (Group 2, 60 mg/kg PO daily): 5 and 4 and 9 (3×) and 8 and 10 and 6
Rat Weight [3]: 217 g and 215 g and 214 g and 222 g and 208 g and 211 g and 220 g (2×)
Rat Weight [4]: 206 g and 202 g and 213 g (2×) and 207 g and 203 g (2×) and 212 g
Rat Weight [5]: 205 g and 199 g and 204 g and 200 g (2×) and 195 g and 206 g and 193 g
Rat Weight [6]: 199 g and 200 g (2×) and 197 g and 196 g and 184 g (2×) and 183 g
Rat Weight [7]: 192 g and 212 g and 200 g (2×) and 193 g and 179 g and 183 g and 176 g
Rat Weight [8]: 196 g and 226 g and 191 g and 192 g and 182 g and 174 g and 199 g and 171 g
Rat Weight [9]: 207 g and 233 g and 193 g and 197 g and 184 g and 172 g and 199 g and 171 g
Rat Weight [10]: 220 g and 244 g and 187 g and 189 g and 178 g and 169 g and 196 g and 181 g
Rat Weight [11]: 214 g and 212 g and 215 g and 219 g and 208 g and 210 g and 220 g (2×)
